Test results from PubChem BioAssay AID1259411 (Chemical Carcinogenesis Research Information System (CCRIS), 2018).
Calls of active or inactive are those of the source. How the calls were made is not given here.

System: rodent carcinogenicity bioassays, tumor incidence
Assay: CCRIS carcinogenicity studies
Conditions: Dose: 0
Method in brief: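 NCI-built, expert-reviewed records of carcinogenicity and related test outcomes (mutagenicity, tumor promotion/inhibition) compiled from published and report sources, historical span 1985-2011, not updated.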

Measured: carcinogen call

O=[N+]([O-])c1cc2c3ccccc3ccc2c2ccccc12
active: Species: MOUSE, Strain/Sex: B6C3F1/MALE, Route: INTRAPERITONEAL, 400 NMOL IN 35 µL DMSO ON DAYS 1 (1/7 TOTAL DOSE), 8 (2/7 TOTAL DOSE), AND 15 (4/7 TOTAL DOSE) AFTER BIRTH (STUDY DUR, Tumor Site: Type of Lesion: LIVER: ADENOMA OR CARCINOMA, LUNG: TUMOR active; positive | Species: MOUSE, Strain/Sex: BLU:HA/FEMALE, Route: INTRAPERITONEAL, 38.5, 189 UG (TOTAL DOSE) GIVEN TO NEWBORN MICE IN 3 DOSES OF 1/7, 2/7 AND 4/7 OF THE TOTAL ON DAYS 1, 8 AND 15 RESPE, 38.5, 189 UG (TOTAL DOSE) GIVEN TO NEWBORN MICE IN 3 DOSES OF 1/7, 2/7 AND 4/7 OF THE TOTAL ON DAYS 1, 8 AND 15 RESPE, Tumor Site: Type of Lesion: LUNG: TUMORS active; positive | Species: MOUSE, Strain/Sex: BLU:HA/MALE, Route: INTRAPERITONEAL, 38.5, 189 UG (TOTAL DOSE) GIVEN TO NEWBORN MICE IN 3 DOSES OF 1/7, 2/7 AND 4/7 OF THE TOTAL ON DAYS 1, 8 AND 15 RESPE, 38.5, 189 UG (TOTAL DOSE) GIVEN TO NEWBORN MICE IN 3 DOSES OF 1/7, 2/7 AND 4/7 OF THE TOTAL ON DAYS 1, 8 AND 15 RESPE, Tumor Site: Type of Lesion: LUNG: TUMORS active; positive | Species: MOUSE, Strain/Sex: ICR/FEMALE, Route: INTRAPERITONEAL, 7.5, 15, 30 µL OF A 26.7 NMOL/UL DMSO SOLUTION ON 1,8, AND 15 D OF AGE RESPECTIVELY (TOTAL DOSE: 0; 1.4 UMOL) (STUDY, 7.5, 15, 30 µL OF A 26.7 NMOL/UL DMSO SOLUTION ON 1,8, AND 15 D OF AGE RESPECTIVELY (TOTAL DOSE: 0; 1.4 UMOL) (STUDY, Tumor Site: Type of Lesion: LUNG: ADENOMA active; positive | Species: MOUSE, Strain/Sex: ICR/FEMALE, Route: INTRAPERITONEAL, 7.7 UG TOTAL DOSE (1.1 UG/5 µL, 2.2 UG/10 µL, 4.4 UG/20 µL DMSO ON DAYS 1, 8 AND 15) ADMINISTERED TO NEWBORN ANIMALS, Tumor Site: Type of Lesion: LUNG: ADENOMA, ADENOCARCINOMA active; positive | Species: MOUSE, Strain/Sex: ICR/FEMALE, Route: INTRAPERITONEAL, 100 NMOL (TOTAL DOSE) ADMINISTERED IN 3 SUBDOSES OF 1/7, 2/7, AND 4/7 ON DAYS 1, 8 AND 15 OF LIFE, RESPECTIVELY (STUD, Tumor Site: Type of Lesion: LUNG: TUMORS active; positive | Species: MOUSE, Strain/Sex: ICR/MALE, Route: INTRAPERITONEAL, 7.5, 15, 30 µL OF A 26.7 NMOL/UL DMSO SOLUTION ON 1,8, AND 15 D OF AGE RESPECTIVELY (TOTAL DOSE: 0; 1.4 UMOL) (STUDY, 7.5, 15, 30 µL OF A 26.7 NMOL/UL DMSO SOLUTION ON 1,8, AND 15 D OF AGE RESPECTIVELY (TOTAL DOSE: 0; 1.4 UMOL) (STUDY, Tumor Site: Type of Lesion: LUNG: ADENOMA active; positive | Species: MOUSE, Strain/Sex: ICR/MALE, Route: INTRAPERITONEAL, 7.7 UG TOTAL DOSE (1.1 UG/5 µL, 2.2 UG/10 µL, 4.4 UG/20 µL DMSO ON DAYS 1, 8 AND 15) ADMINISTERED TO NEWBORN ANIMALS, Tumor Site: Type of Lesion: LUNG: ADENOMA, ADENOCARCINOMA active; positive | Species: MOUSE, Strain/Sex: ICR/MALE, Route: INTRAPERITONEAL, 100 NMOL (TOTAL DOSE) ADMINISTERED IN 3 SUBDOSES OF 1/7, 2/7, AND 4/7 ON DAYS 1, 8 AND 15 OF LIFE, RESPECTIVELY (STUD, Tumor Site: Type of Lesion: LUNG: TUMORS, LIVER: TUMORS active; positive | Species: MOUSE, Strain/Sex: SWISS/FEMALE, Route: INTRAPERITONEAL, 100, 700 NMOL (TOTAL DOSE) 1/7, 2/7 AND 4/7 ADMINISTERED ON DAYS 1, 8 AND 15 OF LIFE RESPECTIVELY (STUDY DURATION: 32, 100, 700 NMOL (TOTAL DOSE) 1/7, 2/7 AND 4/7 ADMINISTERED ON DAYS 1, 8 AND 15 OF LIFE RESPECTIVELY (STUDY DURATION: 32, Tumor Site: Type of Lesion: LUNG: TUMOR active; positive | Species: MOUSE, Strain/Sex: SWISS/FEMALE, Route: INTRAPERITONEAL, 100 NMOL (TOTAL DOSE) ADMINISTERED 1/7, 2/7 AND 4/7 ON DAY 1, 8 AND 15 RESPECTIVELY (STUDY DURATION: 32 WK), Tumor Site: Type of Lesion: LUNG: TUMOR active; positive | Species: MOUSE, Strain/Sex: SWISS/FEMALE, Route: INTRAPERITONEAL, 100 NMOL ON DAY 1 OF LIFE (STUDY DURATION: 32 WK), Tumor Site: Type of Lesion: LUNG: TUMOR, LIVER: TUMOR active; positive | Species: MOUSE, Strain/Sex: SWISS/MALE, Route: INTRAPERITONEAL, 100, 700 NMOL (TOTAL DOSE) 1/7, 2/7 AND 4/7 ADMINISTERED ON DAYS 1, 8 AND 15 OF LIFE RESPECTIVELY (STUDY DURATION: 32, 100, 700 NMOL (TOTAL DOSE) 1/7, 2/7 AND 4/7 ADMINISTERED ON DAYS 1, 8 AND 15 OF LIFE RESPECTIVELY (STUDY DURATION: 32, Tumor Site: Type of Lesion: LUNG: TUMOR, LIVER: TUMOR active; positive | Species: MOUSE, Strain/Sex: SWISS/MALE, Route: INTRAPERITONEAL, 100 NMOL (TOTAL DOSE) ADMINISTERED 1/7, 2/7 AND 4/7 ON DAY 1, 8 AND 15 RESPECTIVELY (STUDY DURATION: 32 WK), Tumor Site: Type of Lesion: LIVER: TUMOR, LUNG: TUMOR active; positive | Species: MOUSE, Strain/Sex: SWISS/MALE, Route: INTRAPERITONEAL, 100 NMOL ON DAY 1 OF LIFE (STUDY DURATION: 32 WK), Tumor Site: Type of Lesion: LUNG: TUMOR, LIVER: TUMOR active; positive | Species: RAT, Strain/Sex: CD-1/FEMALE, Route: INTRAPERITONEAL, 15, 30, 60, 150, 300 µL OF A 26.7 NMOL/UL SOLUTION ON 1, 8, 15, 22, AND 29 D OF AGE RESPECTIVELY (TOTAL DOSE: 0, 14.8, 15, 30, 60, 150, 300 µL OF A 26.7 NMOL/UL SOLUTION ON 1, 8, 15, 22, AND 29 D OF AGE RESPECTIVELY (TOTAL DOSE: 0, 14.8, Tumor Site: Type of Lesion: COLON: ADENOCARCINOMA, ADENOMA/DYSPLASIA active; positive | Species: RAT, Strain/Sex: CD-1/MALE, Route: INTRAPERITONEAL, 15, 30, 60, 150, 300 µL OF A 26.7 NMOL/UL DMSO SOLUTION ON 1, 8, 15, 22 AND 29 D OF AGE RESPECTIVELY (TOTAL DOSE: 0;, 15, 30, 60, 150, 300 µL OF A 26.7 NMOL/UL DMSO SOLUTION ON 1, 8, 15, 22 AND 29 D OF AGE RESPECTIVELY (TOTAL DOSE: 0;, Tumor Site: Type of Lesion: COLON: ADENOCARCINOMA, ADENOMA active; positive | Species: RAT, Strain/Sex: STRAIN-CD/ FEMALE, Route: INJECTION, 2.04 UMOL IN 0.1 ML DMSO INJECTED BENEATH EACH OF THREE LEFT THORACIC NIPPLES THEN ON THE NEXT DAY BENEATH EACH THE T, Tumor Site: Type of Lesion: MAMMARY GLAND: TUMOR active; positive | Species: RAT, Strain/Sex: STRAIN-CD/FEMALE, Route: INJECTION, 2.04 UMOL IN 100 µL DMSO INJECTED INTO 3 THORACIC MAMMARY GLANDS ON DAY 1 AND INTO 3 INQUINAL MAMMARY GLANDS ON DAY 2, Tumor Site: Type of Lesion: MAMMARY GLAND: FIBROADENOMA, ADENOCARCINOMA, SPINDLE CELL SARCOMA active; positive
